This note sets out measurements from ChEMBL document CHEMBL1201862, “PubChem BioAssay data set” (2004).

Assay [1] deals with Ras and Rab interactor 1/Tyrosine-protein kinase ABL1 (Homo sapiens, UniProt P00519+Q13671). It counts as functional.
Assay [2] deals with T1, Insulin-degrading enzyme (Homo sapiens, UniProt P14735).
T1 sequence (P14735 whole entry): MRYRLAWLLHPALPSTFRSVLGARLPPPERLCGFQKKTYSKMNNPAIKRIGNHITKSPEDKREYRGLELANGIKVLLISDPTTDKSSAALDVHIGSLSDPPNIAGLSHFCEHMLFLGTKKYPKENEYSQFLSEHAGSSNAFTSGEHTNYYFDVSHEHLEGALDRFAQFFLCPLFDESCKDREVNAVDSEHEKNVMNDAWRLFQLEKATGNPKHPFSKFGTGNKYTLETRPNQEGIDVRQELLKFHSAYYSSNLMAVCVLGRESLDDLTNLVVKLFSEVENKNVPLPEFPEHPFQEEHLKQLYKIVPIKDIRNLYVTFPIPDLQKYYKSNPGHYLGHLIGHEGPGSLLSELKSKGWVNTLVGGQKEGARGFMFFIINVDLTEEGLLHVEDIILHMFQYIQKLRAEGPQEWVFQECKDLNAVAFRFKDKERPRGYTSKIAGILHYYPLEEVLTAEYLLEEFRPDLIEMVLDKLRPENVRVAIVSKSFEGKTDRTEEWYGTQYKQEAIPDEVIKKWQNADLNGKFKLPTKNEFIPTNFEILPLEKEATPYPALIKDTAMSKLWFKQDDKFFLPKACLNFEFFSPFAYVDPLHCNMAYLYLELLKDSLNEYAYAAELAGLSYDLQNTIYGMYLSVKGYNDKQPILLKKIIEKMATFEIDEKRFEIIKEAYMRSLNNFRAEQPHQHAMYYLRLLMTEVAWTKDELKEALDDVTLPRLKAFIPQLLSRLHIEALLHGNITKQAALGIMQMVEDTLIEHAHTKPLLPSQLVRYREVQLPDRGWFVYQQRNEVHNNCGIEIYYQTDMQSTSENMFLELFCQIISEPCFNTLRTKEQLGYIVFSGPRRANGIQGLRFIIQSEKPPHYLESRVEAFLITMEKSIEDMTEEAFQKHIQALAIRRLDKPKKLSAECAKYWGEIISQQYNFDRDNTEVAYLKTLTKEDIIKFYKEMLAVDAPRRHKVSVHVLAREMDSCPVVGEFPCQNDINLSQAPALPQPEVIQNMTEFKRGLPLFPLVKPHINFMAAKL
The experiment in a line: activators of recombinant IDE enzyme, dose response, counter-screen for IDE activator project, biochemical, fluorescence polarization (AID 588681).

The target of assay [3] is T1, Insulin-degrading enzyme. The experiment in a line: activators of endogenous IDE in HEK cells, dose response, cell-based, fluorescence polarization (AID 588439). It counts as functional. (Polarisation of emitted light reports the rotation of a fluorescent probe.)
Assay [4] has as its system HEK293. Nature of the assay: HEK cell cytotoxicity by LDH release, dose response, cytotoxicity control for IDE activator project, fluorescence, HEK cells (AID 588440).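 Note: cytotoxicity by LDH release measuring loss of membrane integrity.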 It counts as functional, cell-based. The following applies: Homo sapiens. (LDH in the medium is a marker of cell lysis.)
Assay [5] deals with HEK293. The experiment in a line: optical interference in Abeta FP readout, dose response, artefact control for IDE activator project, biochemical, fluorescence polarization (AID 588442). It counts as functional, cell-based. As to conditions: Homo sapiens.
Assay [6] concerns the target Dual specificity tyrosine-phosphorylation-regulated kinase 1B (Homo sapiens, UniProt Q9Y463). The experiment in a line: Navigating the Kinome. Panel member name: DYRK1B. It counts as functional.
Assay [7] has as its target Serine/threonine-protein kinase 3 (Homo sapiens, UniProt Q13188). Format: functional.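 Note: measured as one member of a kinome-wide kinase panel.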
The nature of assay [8]: THP-1 cell cytotoxicity, cytotoxicity control, set 4 (AID 504911). Format: functional. The following applies: Mycobacterium tuberculosis.
A short description of assay [9]: THP-1 cell cytotoxicity, dose response, cytotoxicity control, set 3 (AID 504852). Format: functional. As to conditions: Mycobacterium tuberculosis.
Assay [10] can be described thus: Vero cell cytotoxicity, dose response, cytotoxicity control for M. tuberculosis growth inhibitor project, Vero cells, purified and synthesized compounds, set 4 (AID 504854). Format: functional. The following applies: Mycobacterium tuberculosis.
The target in assay [11] is T2, Apoptotic protease-activating factor 1 (Homo sapiens, UniProt O14727).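 Note: caspase-3 cleavage of fluorogenic Rh110 DEVD substrate downstream of apoptosome activation.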
T2 sequence (O14727 whole entry): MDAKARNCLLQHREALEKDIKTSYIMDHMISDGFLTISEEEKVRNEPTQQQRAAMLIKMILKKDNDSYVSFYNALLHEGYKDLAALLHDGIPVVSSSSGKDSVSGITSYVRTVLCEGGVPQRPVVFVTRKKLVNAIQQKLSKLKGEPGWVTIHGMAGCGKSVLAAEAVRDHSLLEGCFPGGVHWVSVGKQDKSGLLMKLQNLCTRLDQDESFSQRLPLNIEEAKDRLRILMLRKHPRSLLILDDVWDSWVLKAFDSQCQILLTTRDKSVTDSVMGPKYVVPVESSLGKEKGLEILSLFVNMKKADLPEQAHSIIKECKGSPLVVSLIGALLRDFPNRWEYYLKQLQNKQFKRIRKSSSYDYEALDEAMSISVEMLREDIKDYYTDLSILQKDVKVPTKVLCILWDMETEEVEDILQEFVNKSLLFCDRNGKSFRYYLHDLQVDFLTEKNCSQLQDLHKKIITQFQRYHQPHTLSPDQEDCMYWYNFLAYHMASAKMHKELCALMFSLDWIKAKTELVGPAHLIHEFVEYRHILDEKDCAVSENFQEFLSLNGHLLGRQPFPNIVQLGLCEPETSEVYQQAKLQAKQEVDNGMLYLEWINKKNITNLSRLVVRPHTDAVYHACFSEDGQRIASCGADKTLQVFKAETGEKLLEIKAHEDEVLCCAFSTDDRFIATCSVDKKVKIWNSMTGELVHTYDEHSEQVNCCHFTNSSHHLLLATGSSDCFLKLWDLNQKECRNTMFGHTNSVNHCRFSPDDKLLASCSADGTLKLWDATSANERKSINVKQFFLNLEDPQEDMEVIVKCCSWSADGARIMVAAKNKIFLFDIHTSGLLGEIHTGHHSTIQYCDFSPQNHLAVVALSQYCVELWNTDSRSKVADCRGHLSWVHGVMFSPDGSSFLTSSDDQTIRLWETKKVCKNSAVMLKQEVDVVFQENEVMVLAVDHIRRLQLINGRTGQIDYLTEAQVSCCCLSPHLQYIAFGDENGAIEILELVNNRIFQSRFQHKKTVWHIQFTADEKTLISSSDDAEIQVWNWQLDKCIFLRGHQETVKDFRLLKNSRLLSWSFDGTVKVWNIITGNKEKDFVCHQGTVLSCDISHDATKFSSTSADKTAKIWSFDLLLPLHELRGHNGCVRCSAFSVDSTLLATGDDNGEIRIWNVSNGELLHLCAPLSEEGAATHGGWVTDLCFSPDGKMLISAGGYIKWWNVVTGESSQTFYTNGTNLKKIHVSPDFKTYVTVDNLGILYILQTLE
The experiment in a line: SAR analysis of small molecule Activators of Apaf-1 in a Fluorescent assay. Format: functional. As to conditions: read-out: EC50_Mean.

Assay [12] has as its target DNA dC->dU-editing enzyme APOBEC-3G (Homo sapiens, UniProt Q9HC16). The experiment in a line: APOBEC3G deaminase inhibitors, SAR follow-up, biochemical, fluorescence, single-stranded DNA substrate (AID 602136). Format: functional. As to conditions: read-out: IC50_Mean.
In assay [13] the target is DNA dC->dU-editing enzyme APOBEC-3A (Homo sapiens, UniProt P31941). Nature of the assay: SAR analysis of small molecule inhibitors of APOBEC3A DNA Deaminase via a fluorescence-based single-stranded DNA deaminase assay. Format: functional. As to conditions: read-out: IC50_Mean.
The target in assay [14] is Serine/threonine-protein kinase PLK3 (Homo sapiens, UniProt Q9H4B4). It counts as functional.
Assay [15] addresses Casein kinase II subunit alpha (Homo sapiens, UniProt P68400). It counts as functional.
The target of assay [16] is Mitogen-activated protein kinase 13 (Homo sapiens, UniProt O15264). Format: functional.
Assay [17] can be described thus: NIH-3T3 fibroblast cytotoxicity, dose response, cytotoxicity control, cell-based, fluorescence, Alamar Blue, secondary assay (AID 2327).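 Note: NIH-3T3 mouse fibroblasts cultured with fluconazole at 8 µg/mL.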 Format: functional. For orientation: Resazurin is reduced to fluorescent resorufin, in cell work by metabolically active cells.
A short description of assay [18]: C. albicans growth with fluconazole, confirmation, fluorescence, retest (AID 2467). It counts as functional, cell-based.
Assay [19] is described as follows: microbe, parasite or virus in culture. The following applies: Mycobacterium tuberculosis. Format: functional.
Assay [20] concerns the target T3, Serine/threonine-protein phosphatase (Candida dubliniensis (strain CD36 / CBS 7987 / NCPF 3949 / NRRLY-17841) (Yeast), UniProt B9W6M3).
T3 sequence (B9W6M3 whole entry): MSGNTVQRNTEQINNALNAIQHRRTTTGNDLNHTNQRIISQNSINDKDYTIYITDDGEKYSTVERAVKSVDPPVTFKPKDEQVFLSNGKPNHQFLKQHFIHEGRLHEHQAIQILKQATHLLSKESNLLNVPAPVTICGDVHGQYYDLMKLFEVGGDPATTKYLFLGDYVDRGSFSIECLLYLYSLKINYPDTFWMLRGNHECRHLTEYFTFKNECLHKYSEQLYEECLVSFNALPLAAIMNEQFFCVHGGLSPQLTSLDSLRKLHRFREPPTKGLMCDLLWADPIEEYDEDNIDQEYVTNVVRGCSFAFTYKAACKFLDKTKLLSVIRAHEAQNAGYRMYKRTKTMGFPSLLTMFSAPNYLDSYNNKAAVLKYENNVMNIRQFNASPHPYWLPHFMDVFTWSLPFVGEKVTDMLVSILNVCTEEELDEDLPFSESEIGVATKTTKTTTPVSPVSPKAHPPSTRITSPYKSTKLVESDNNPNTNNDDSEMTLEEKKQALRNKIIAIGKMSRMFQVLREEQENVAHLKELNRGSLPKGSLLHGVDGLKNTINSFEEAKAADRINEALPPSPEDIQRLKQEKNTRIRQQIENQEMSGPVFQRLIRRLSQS
Nature of the assay: calcineurin pathway inhibitors in yeast reporter, dose response, S. cerevisiae, CDRE-lacZ, luminescence, secondary (AID 2388).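 Note: yeast reporter cells carrying a calcineurin-responsive lacZ construct stimulated with calcium chloride; luminescent beta-galactosidase reporter signal in whole cells rather than isolated phosphatase activity; potency for inhibition where a drop in reporter signal means calcineurin blockade.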 Format: functional, cell-based.

A further assay concerns INS1. The experiment in a line: beta cell apoptosis inhibitors, cytokine rescue, dose response, luminescence, retest (AID 449756).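 Note: cell death triggered by IL-1 beta plus TNF-alpha plus IFN-gamma mixture; protective hits raise ATP signal compared with cytokine alone wells.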 It counts as functional, cell-based. As to conditions: Rattus norvegicus.
In assay [21] the target is ATP-dependent molecular chaperone HSP82 (Candida albicans (strain WO-1) (Yeast), UniProt C4YTQ8). Nature of the assay: loss of DOC-induced GRE-beta-galactosidase reporter signal, dose response, Hsp90 inhibitor project, S. cerevisiae, luminescence (AID 2400).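 Note: beta-galactosidase luminescence from glucocorticoid response element reporter as proxy for Hsp90 function; inhibitor potency where signal loss means Hsp90 inhibition.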 It counts as functional, cell-based.
Assay [22] can be described thus: A Cell Based Secondary Assay to Explore Cytotoxicity in THP-1 Cells of Compounds that Modulate Mycobacterium tuberculosis in Media Containing Glycerol versus Media without Glycerol (2). It counts as functional.
Assay [23] is described as follows: Vero cell cytotoxicity, cytotoxicity control for M. tuberculosis inhibitor project, purified and synthesized samples, set 3 (AID 504684). Format: functional. As to conditions: […].
Assay [24] can be described thus: A Cell Based Secondary Assay to Explore Cytotoxicity in HepG2 Cells of Compounds that Modulate Mycobacterium tuberculosis in Media Containing Glycerol versus Media without Glycerol (2). It counts as functional.

Several values for one entry are separate records, joined by “and”; a condition that tells them apart may be missing. Equal entries are not always repeated. Activity calls are given as the source filed them.

Chain of Serine/threonine-protein kinase 3 (Q13188 whole entry): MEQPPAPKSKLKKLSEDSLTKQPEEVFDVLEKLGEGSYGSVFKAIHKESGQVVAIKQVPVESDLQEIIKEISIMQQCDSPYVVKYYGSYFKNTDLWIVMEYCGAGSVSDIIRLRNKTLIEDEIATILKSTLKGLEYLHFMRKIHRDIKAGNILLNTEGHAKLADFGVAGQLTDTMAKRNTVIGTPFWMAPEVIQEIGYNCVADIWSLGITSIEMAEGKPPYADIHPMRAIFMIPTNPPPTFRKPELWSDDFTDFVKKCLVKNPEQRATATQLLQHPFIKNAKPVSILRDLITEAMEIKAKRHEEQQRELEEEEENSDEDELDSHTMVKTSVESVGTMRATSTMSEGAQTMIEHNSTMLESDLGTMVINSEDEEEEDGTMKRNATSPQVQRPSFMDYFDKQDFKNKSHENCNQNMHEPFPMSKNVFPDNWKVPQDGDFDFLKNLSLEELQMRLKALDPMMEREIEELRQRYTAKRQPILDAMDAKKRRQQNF
Chain of DNA dC->dU-editing enzyme APOBEC-3A (P31941 whole entry): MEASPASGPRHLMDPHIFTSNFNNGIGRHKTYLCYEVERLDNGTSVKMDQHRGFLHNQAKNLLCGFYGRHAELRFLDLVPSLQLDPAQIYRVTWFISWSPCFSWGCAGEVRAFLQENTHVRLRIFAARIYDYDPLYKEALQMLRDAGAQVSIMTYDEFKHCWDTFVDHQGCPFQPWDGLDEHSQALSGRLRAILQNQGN
Chain of DNA dC->dU-editing enzyme APOBEC-3G (Q9HC16 whole entry): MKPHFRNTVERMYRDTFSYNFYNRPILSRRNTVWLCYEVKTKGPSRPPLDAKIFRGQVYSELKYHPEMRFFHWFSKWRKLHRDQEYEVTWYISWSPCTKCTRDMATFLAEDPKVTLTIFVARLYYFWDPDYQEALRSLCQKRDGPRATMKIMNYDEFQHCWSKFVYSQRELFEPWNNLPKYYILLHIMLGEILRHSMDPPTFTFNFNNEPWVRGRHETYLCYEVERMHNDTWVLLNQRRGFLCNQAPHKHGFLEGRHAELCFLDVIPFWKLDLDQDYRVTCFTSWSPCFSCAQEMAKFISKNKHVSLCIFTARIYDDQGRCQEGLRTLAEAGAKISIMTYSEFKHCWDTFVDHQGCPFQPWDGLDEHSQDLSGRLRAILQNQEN
Chain of ATP-dependent molecular chaperone HSP82 (C4YTQ8 whole entry): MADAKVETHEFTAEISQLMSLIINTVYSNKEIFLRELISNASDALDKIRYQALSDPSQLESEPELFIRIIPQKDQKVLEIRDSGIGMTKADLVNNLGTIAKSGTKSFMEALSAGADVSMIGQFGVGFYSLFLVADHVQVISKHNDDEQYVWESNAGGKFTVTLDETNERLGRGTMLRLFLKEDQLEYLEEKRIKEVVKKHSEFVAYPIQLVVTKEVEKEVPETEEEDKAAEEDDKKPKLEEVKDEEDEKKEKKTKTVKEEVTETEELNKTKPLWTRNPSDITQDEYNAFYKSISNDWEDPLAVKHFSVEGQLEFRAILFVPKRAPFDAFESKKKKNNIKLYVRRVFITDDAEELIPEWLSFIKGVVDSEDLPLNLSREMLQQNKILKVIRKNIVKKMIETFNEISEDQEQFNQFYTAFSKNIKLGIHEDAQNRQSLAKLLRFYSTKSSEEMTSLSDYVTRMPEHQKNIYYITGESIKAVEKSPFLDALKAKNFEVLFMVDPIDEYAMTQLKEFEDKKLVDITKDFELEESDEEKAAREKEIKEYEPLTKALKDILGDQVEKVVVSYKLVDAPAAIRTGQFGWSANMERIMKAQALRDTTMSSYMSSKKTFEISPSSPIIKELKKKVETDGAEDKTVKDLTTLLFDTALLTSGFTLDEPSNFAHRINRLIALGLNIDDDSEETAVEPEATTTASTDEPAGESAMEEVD
Chain of Dual specificity tyrosine-phosphorylation-regulated kinase 1B (Q9Y463 whole entry): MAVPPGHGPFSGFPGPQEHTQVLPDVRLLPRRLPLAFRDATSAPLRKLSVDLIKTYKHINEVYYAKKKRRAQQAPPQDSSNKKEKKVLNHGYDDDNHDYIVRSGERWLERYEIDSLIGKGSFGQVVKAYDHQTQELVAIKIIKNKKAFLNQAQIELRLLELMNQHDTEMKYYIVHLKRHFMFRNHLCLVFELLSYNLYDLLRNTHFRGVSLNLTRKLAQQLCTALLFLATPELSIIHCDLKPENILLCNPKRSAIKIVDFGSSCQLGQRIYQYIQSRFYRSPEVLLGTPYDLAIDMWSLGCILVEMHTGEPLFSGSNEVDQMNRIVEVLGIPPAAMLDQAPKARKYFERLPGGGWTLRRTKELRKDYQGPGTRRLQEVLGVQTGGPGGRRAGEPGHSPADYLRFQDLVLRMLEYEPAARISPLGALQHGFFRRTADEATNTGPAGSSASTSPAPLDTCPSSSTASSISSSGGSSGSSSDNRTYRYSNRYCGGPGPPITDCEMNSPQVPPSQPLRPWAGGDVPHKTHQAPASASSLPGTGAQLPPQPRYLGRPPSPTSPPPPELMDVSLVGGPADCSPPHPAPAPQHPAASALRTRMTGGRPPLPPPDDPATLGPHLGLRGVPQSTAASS
Chain of Serine/threonine-protein kinase PLK3 (Q9H4B4 whole entry): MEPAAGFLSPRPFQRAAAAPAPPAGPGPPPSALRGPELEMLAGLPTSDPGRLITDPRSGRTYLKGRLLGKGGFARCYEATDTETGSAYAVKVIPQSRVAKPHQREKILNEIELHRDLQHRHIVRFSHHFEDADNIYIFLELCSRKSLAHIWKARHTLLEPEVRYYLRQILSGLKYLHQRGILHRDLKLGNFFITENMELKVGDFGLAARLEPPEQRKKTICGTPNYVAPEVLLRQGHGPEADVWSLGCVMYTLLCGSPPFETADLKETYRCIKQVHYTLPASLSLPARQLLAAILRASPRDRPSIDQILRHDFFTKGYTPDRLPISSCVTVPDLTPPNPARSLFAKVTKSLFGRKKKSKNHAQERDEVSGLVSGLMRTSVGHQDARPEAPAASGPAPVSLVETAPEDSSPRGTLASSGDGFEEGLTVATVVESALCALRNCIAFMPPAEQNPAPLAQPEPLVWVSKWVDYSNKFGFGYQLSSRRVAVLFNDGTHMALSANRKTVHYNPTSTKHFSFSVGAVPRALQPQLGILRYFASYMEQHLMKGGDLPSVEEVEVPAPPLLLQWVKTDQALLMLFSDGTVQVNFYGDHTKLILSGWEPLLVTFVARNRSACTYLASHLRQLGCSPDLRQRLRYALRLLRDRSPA
Chain of Ras and Rab interactor 1/Tyrosine-protein kinase ABL1 (P00519 whole entry): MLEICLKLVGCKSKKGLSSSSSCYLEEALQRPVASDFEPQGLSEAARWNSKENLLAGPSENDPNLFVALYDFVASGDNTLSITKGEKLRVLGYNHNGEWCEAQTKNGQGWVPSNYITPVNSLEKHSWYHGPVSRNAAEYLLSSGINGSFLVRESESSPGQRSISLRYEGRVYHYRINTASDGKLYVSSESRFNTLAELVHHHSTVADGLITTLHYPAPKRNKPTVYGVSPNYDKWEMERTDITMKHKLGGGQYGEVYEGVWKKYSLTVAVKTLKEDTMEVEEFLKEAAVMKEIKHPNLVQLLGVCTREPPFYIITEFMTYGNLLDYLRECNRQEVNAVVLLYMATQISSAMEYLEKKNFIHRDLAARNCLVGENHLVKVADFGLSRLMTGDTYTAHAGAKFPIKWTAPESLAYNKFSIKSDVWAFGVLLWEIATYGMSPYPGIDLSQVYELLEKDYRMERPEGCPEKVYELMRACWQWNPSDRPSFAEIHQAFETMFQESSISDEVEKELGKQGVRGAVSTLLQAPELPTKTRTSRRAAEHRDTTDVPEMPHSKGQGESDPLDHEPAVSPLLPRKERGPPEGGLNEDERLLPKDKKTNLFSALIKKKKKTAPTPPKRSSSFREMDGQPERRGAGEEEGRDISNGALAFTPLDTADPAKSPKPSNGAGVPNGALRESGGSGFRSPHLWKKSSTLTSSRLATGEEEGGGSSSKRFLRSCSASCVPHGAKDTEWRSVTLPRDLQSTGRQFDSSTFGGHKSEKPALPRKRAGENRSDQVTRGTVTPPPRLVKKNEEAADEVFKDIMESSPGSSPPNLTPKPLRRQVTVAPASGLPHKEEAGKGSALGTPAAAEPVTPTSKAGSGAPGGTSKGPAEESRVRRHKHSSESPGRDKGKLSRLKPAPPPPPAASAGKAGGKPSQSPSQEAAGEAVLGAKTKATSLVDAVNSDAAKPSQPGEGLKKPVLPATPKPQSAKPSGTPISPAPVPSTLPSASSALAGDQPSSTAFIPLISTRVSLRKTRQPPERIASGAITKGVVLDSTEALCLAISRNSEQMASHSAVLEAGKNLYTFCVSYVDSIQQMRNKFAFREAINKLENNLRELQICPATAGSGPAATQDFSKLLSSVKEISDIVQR
Chain of Ras and Rab interactor 1/Tyrosine-protein kinase ABL1 (Q13671 whole entry): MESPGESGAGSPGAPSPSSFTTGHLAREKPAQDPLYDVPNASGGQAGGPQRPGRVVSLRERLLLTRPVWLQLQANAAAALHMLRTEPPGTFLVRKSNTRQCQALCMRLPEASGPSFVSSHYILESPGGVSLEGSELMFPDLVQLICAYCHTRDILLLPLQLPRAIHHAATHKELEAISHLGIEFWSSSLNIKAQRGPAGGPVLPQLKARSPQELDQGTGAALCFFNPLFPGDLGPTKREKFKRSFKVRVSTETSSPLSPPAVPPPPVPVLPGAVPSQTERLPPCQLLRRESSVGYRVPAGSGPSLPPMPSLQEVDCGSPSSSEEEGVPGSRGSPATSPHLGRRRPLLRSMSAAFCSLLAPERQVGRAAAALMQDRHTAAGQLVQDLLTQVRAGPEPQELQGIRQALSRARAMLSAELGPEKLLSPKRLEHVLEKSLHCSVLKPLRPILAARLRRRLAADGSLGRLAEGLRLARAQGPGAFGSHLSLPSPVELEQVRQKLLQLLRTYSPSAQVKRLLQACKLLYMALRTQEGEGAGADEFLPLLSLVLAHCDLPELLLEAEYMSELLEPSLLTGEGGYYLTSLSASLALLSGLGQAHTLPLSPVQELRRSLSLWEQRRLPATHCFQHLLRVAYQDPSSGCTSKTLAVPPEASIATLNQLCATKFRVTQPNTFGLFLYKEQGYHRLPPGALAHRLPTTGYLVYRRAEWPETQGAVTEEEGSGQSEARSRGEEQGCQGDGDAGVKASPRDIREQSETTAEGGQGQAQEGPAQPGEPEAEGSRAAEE

Take `CC[C@]12c3[nH]c4ccc(OC)cc4c3CCN1C(=O)C(CC(=O)NCc1cccc(C(F)(F)F)c1)C[C@@H]2C(=O)N1CCN(C(=O)c2ccco2)CC1` (some centres not stated): the IC50 in [1] is 20.1 µM (inactive).
Take `O=C(CN1CCN(CN2C(=O)NC3(CCCCCC3)C2=O)CC1)Nc1ccc(F)cc1`: the EC50 was > 54.7 µM (inactive) at Insulin-degrading enzyme [2], > 54.7 µM (inactive) on Insulin-degrading enzyme [3] and > 55.9 µM (inactive) in the assay on HEK293 [5]. The IC50 with HEK293 [4] was > 89.2 µM (inactive).
For orientation: Ki means a dissociation constant, usually derived from enzyme kinetics or from competition with a known ligand. `CC(Oc1cc(-c2cnn(C3CCNCC3)c2)cnc1N)c1c(Cl)ccc(F)c1Cl` (configuration not stated): the Ki in [6] is > 2.51 µM (inactive); in assay [7], 3.16 µM (active) and 794 nM (active).
Consider `CC(Sc1nc2ccccc2c(=O)[nH]1)C(=O)NC1CCCCC1` (configuration not stated), for which the CC50 in assay [8], in assay [9] and in assay [10] was > 100 µM (active) each time.
On to `COc1ccc(C)c(NCC(C)C(=O)O)c1` (configuration not stated), for which the EC50 in [11] is > 100 µM (inactive).
On to `c1cncc(-c2nc3sc4c(c3c3nncn23)CCCC4)c1`, for which the IC50 in [12] and in assay [13] was > 99 µM (inactive) in each case.
Consider `Nc1csc(Nc2ccccc2)n1`, for which the Ki in [14] is 2.51 µM (active); in [15], 10 µM (active).
Turning to `O=C(NC1CCCCC1)c1nn2c(C(F)(F)F)cc(-c3ccc(Br)cc3)nc2c1Cl`, the IC50 in [12] and in assay [13] was > 99 µM (inactive) throughout.
In the case of `CCOc1nc(NC(=O)Cc2cc(OC)ccc2OC)cc(N)c1C#N`, in [16], the Ki was > 7.94 µM (inactive).
What is called AC50 is the midpoint of the concentration-response curve, whichever way the signal moves. On to `Cc1ccc2ccc3ccc(C)nc3c2n1` [NEOCUPROINE], for which the EC50 is 147 µM (active) in [17], 0.133 µM (active) in [18], > 180 µM (inactive) in [20] and > 150 µM (inactive) in [21]. For the same compound, the CC50 in assay [19] was 36.4 µM (active); in assay [22], < 0.2 µM (active); in assay [23], 1.23 µM (active); in [24], 0.21 µM (active). In addition, in the assay on INS1, the concentration at half-maximal activity (AC50) was < 0.195 µM (active).
